Where two headings read alike, the source gives them in different places.
Assays:
[1] = system: 217 S. aureus Canadian isolates; type: cell-based; conditions: 217 Canadian isolates
Description: CLSI broth microdilution (BMD) and anaerobic agar dilution (AD) methods were performed. Modifications of standard test methods included adding 10% human serum, adjusting the medium pH to 5, 6, and 8, and synergy was assessed by the checkerboard method.

[2] = Single oral dose bioavailability study, fed/fasted crossover, plasma fusidic acid; conditions: human, in vivo, 500 mg, 500 mg single oral dose; for AUC(0-t): read-out: AUC0-t, geometric mean (CV %); for AUC(0-inf): read-out: AUCinf, geometric mean (CV %); for Cmax: read-out: Cmax, geometric mean (CV %); for half-life: read-out: t1/2, arithmetic mean ± SD (converted); for AUC: read-out: total exposure (AUC)
Description: This was a single-center, Phase 1, double-blind, randomized, 3 period, fed/fasted crossover bioequivalence study designed to evaluate the relative bioavailability and safety and tolerability of a single oral dose of CEM-102 500 mg compared to Fucidin® 500 mg in healthy subjects.
Subjects were randomized in equal numbers to the 4 treatment sequences (Table 3).
Study Period 1, 2, and 3 (Days 1, 15, and 29): One dose of study drug 500 mg (2×250 mg) of CEM-102 or Fucidin® was given at 8:00 AM (˜30 minutes). On Day 1 of Study Periods 1 and 2 (Days 1 and 15), subjects fasted overnight for at least 10 hours prior to dosing. On Day 1 of Study Period 3 (Day 29), subjects were given a high fat caloric meal which was to be entirely consumed within 30 minutes prior to study drug administration.
Blood samples for assay of plasma concentrations were collected on Days 1, 15 and 29 at pre-dose and 0.5, 1, 1.5, 2, 2.5, 3, 3.5, 4, 6, 8, 12, 16, 24, 36, and 48 hours after the dose. Plasma concentrations were assayed at MicroConstants, Inc. in San Diego, Calif. using a validated liquid chromatography with dual tandem mass spectrometry (LC/MS/MS) method with a lower limit of quantitation (LLOQ) of 20.0 ng/mL

[3] = Multi-dose pharmacokinetics 500 mg TID, 13 doses; type: in vivo, human; conditions: for AUC: Day 5 (13 doses)
Description: The pharmacokinetics of multiple oral doses of CEM-102 (sodium fusidate) 500 mg tablets in healthy subjects was evaluated. Subjects were randomized in a 3:1 ratio and received either CEM-102 500 mg (2×250 mg; n=18) or placebo tablets TID (n=6) for 4.5 days for a total of 13 doses.
Blood samples for assay of plasma concentrations of CEM-102 and placebo were collected pre-dose on Day 1 and at 24, 48, 72, and 96 hours. Samples were also collected at the following times after the morning dose on Day 5: 0.5, 1, 1.5, 2, 2.5, 3, 3.5, 4, 6, 8, 12, 16, 24, 36, and 48 hours.
Plasma concentrations of CEM-102 were assayed at MicroConstants, Inc. in San Diego, Calif., USA using a validated LC/MS/MS method with a lower limit of quantitation (LLOQ) of 20.0 ng/mL.

SMILES: CC(=O)O[C@H]1C[C@@]2(C)[C@@H](C[C@@H](O)[C@H]3[C@@]4(C)CC[C@@H](O)[C@@H](C)[C@@H]4CC[C@@]32C)/C1=C(\CCC=C(C)C)C(=O)O [CEM-102, Sodium fusidate]
- isolates with MICs of ≧2.0 μg/mL (classified as resistant) [1]: 6.5%
- AUC(0-t) ([2]; fasting): 300 µg·h/mL
- AUC(0-inf) ([2]; fasting): 318 µg·h/mL
- Cmax ([2]; fasting): 27400 ng/mL
- half-life ([2]; fasting): 11.8 ± 2.2 h
- AUC ([2]; fasting): ~318 µg·h/mL
- AUC(0-t) ([2]; fed): 269 µg·h/mL
- AUC(0-inf) ([2]; fed): 285 µg·h/mL
- Cmax ([2]; fed): 21200 ng/mL
- half-life ([2]; fed): 11.5 ± 2.75 h
- AUC ([2]; fed): ~285 µg·h/mL
- trough level ([3]; 500 mg TID, prior to dosing on Day 5): 105 µg/mL
- Cmaxss, geometric mean ([3]; human, in vivo, 500 mg): 145680 ng/mL
- AUC ([3]; human, in vivo, 500 mg, 500 mg TID, read-out: AUC0-tss, geometric mean): 3560 µg·h/mL
- AUC ([3]; human, in vivo, 500 mg, 500 mg TID, read-out: AUC0-τss, geometric mean): 1030 µg·h/mL

— patent publication US8450300B2 (priority 2009, dated 2013)
